Holding throughout (type): cell-based
Experiment [1] concerns the target T1, Myostatin (Homo sapiens, UniProt O14793).
T1 construct: active myostatin (also called mature myostatin) is a homodimer consisting of two C-terminal growth factor domains; purchased R&D systems 788-G8/CF
T1 sequence (O14793 267-375): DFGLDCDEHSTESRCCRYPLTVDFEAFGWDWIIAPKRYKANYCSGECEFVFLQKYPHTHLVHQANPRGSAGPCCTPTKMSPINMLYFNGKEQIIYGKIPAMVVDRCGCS
The experiment can be described thus: Reporter gene assay for myostatin signaling in HepG2 cell line, Evaluation Procedure (1), myostatin inhibition. To be noted: read-out: IC50 (Luciferase) Myostatin HepG2. The protocol:
(§1) In this Example, the in vitro myostatin inhibitory effects of the peptides synthesized in Examples 1 and 2 were evaluated using a reporter gene assay for myostatin signaling in HepG2 cell line.
(§2) HepG2 cell line (HB-8065, ATCC) cultured in EMEM (055-08975, WAKO Industries) containing 10% FBS (10270106, Gibco) and 50 µg/mL gentamicin (11980-14, Nacalai Tesque) was seeded in 96-well plates (167008, Thermo) at 2.0 × 10^4 cells/well and incubated in a CO2 incubator (37°C, 5% CO2) for 24 hours. The pGL3(CAGA)12-luc plasmid, namely a pGL3 vector (E1751, Promega) having a luciferase gene inserted downstream of a promoter sequence with 12 CAGA repeats attached, was added to the wells along with a transfection reagent (X-treamGENE9 DNA Transfection Reagent, 6365809001, Roche) at a concentration of 0.04 µg/well. The cell line was cultured in a CO2 incubator (37°C, 5% CO2) for 24 hours for transfection. The medium was discarded and replaced with EMEM containing 50 µL/well of 0.1% bovine serum albumin (A7030, Sigma) and 50 µg/mL gentamicin, and incubated in a CO2 incubator (37°C, 5% CO2) for 2 hours.
(§3) Myostatin (788-G8/C, R&D systems) or GDF-11 (1958-GD-G8/CF, R&D systems) was added so that the final concentrations were those listed in Table 5.
(§4) A 4-fold dilution series of various peptides synthesized in Examples 1 and 2 was added to achieve 0.006-100 nmol/L (myostatin inhibition) and 0.12-2000 nmol/L (GDF-11 inhibition). At this time, blank wells, in which neither myostatin, GDF-11, nor each peptide was added, were also prepared and incubated in a CO2 incubator (37°C, 5% CO2) for 20 to 24 hours.
(§5) The medium containing the cells was removed, and a mixture containing PBS (14190144, Thermo) and a chromogenic substrate One-Glo Luciferase Assay System (E6120, Promega) at a ratio of 1:1 was added to each well at 100 µL/well. This was stirred with a plate shaker for 5 min and transferred to a 384-well plate (3570, Corning) at a volume of 20 µL/well.
(§6) The plate was centrifuged at 1,000 × g for 1 min and the luminescence signal (700 nm luminescence) was measured using a plate reader (Envision 2104, PerkinElmer). Based on the measured values, IC50 values of the peptides were calculated using software (Prism 9, GraphPad). […]
(§7) In this Example, the in vitro myostatin inhibitory effects of the peptides synthesized in Examples 10 and 11 were evaluated according to the Evaluation Procedure (1) in Example 3.
(In general: A reporter such as luciferase makes a cellular process visible.)

Experiment [2] has as its system Myostatin. Described as above. Particulars: GDF-11 IC50 versus Myostatin IC50. The method, then:
as §1, §2, §3, §4, §5, §6, §7

In a further experiment the target is T2, GDF-11 (Homo sapiens, UniProt O95390).
T2 construct: purchased R&D systems 1958-GD-G8/CF
T2 sequence (O95390 299-407): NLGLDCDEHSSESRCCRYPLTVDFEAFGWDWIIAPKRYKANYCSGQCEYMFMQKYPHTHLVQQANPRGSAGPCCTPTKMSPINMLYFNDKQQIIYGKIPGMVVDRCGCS
The experiment can be described thus: Reporter gene assay for myostatin signaling in HepG2 cell line, Evaluation Procedure (1), GDF-11 inhibition. Particulars: read-out: IC50 (Luciferase) GDF-11 HepG2. The method, then: as §1, §2, §3, §4, §5, §6, §7

Each structure is given as a SMILES string. Where two headings read alike, the source gives them in different places. Starred links: 1 amine or outer side, 2 acyl side, 3 side chain; linkers in the order of their positions; H or OH if unused. Positions of bridges follow the written chain, without caps; N, C: chain ends. Non-standard residues stand in square brackets, D forms with d. Residues, ends and D or L forms follow the SMILES beside them. *: point of attachment. Phe(3-OCH2COOH) = N[C@@H](Cc1cccc(OCC(=O)O)c1)C(=O)O; NMePhe(4-CH2NH2) = CN[C@@H](Cc1ccc(CN)cc1)C(=O)O; Phe(4-COOH) = N[C@@H](Cc1ccc(C(=O)O)cc1)C(=O)O; Trp(6-aza) = N[C@@H](Cc1c[nH]c2cnccc12)C(=O)O; Trp(7-aza) = N[C@@H](Cc1c[nH]c2ncccc12)C(=O)O; Piperazinyl(4-CH2COOH) = O=C(O)CN1CCN(*)CC1; Piperidinyl(4-CH2COOH) = O=C(O)CC1CCN(*)CC1; Gly(Nα-CH2CH2CONH2) = NC(=O)CCNCC(=O)O; Gly(decyl) = CCCCCCCCCC[C@H](N)C(=O)O; Gly(N(CH2)3COOH) = O=C(O)CCCNCC(=O)O; X1 = CCCCCCC[C@H](N[*:1])C(=O)[*:2]; NMeCha = CN[C@@H](CC1CCCCC1)C(=O)O; NMeF = CN[C@@H](Cc1ccccc1)C(=O)O; NMeE = CN[C@@H](CCC(=O)O)C(=O)O; Carboxymethyl = O=C(O)C*; NMeA = CN[C@@H](C)C(=O)O; NEtG = CCNCC(=O)O; Sar = CNCC(=O)O

The term IC50 denotes the concentration that inhibits the measured activity by half.

Consider `CC[C@H](C)[C@@H]1NC(=O)[C@H](Cc2ccccc2)N(C)C(=O)[C@H](Cc2ccc(O)cc2)NC(=O)[C@H](Cc2c[nH]c3ncccc23)NC(=O)[C@H](C)NC(=O)CN(CCC(N)=O)C(=O)CSC[C@H](C(=O)O)NC(=O)[C@H](Cc2ccccc2)N(C)C(=O)[C@H](C)N(C)C(=O)[C@H](CC(C)C)NC(=O)[C@H](Cc2ccccc2)N(C)C(=O)[C@H](CCCNC(=N)N)NC(=O)[C@H](Cc2ccc(C(=O)O)cc2)NC(=O)[C@H](Cc2ccccc2)NC(=O)CN(C)C1=O` [Myostatin_99_v46] ({CH2CO}-[Gly(Nα-CH2CH2CONH2)]A[Trp(7-aza)]Y[NMeF]I[Sar]F[Phe(4-COOH)]R[NMeF]L[NMeA][NMeF][dC]-OH; thioether N-15), for which the IC50 at Myostatin [1] (Method A: Myostatin 10 ng/mL) was 0.0432 µM; on GDF-11 (Method A: GDF-11 10 ng/mL), 1.54 µM. In the experiment with Myostatin [2] (Method A), this compound registered a Selectivity of 36.
In the case of `CCCCCCC[C@@H]1NC(=O)[C@H](Cc2ccccc2)N(C)C(=O)[C@H](CCCNC(=N)N)NC(=O)[C@H](Cc2ccc(C(=O)O)cc2)NC(=O)[C@H](Cc2cccc(OCC(=O)O)c2)NC(=O)CN(C)C(=O)[C@H]([C@@H](C)CC)NC(=O)[C@H](Cc2ccccc2)N(C)C(=O)[C@H](Cc2ccc(O)cc2)NC(=O)[C@H](Cc2c[nH]c3ccccc23)NC(=O)[C@H](CO)NC(=O)[C@H](C)NC(=O)CSC[C@H](C(=O)O)NC(=O)[C@H](Cc2ccccc2)N(C)C(=O)[C@H](C)N(C)C1=O` [Myostatin_99_v159] ({CH2CO}-ASWY[NMeF]I[Sar][Phe(3-OCH2COOH)][Phe(4-COOH)]R[NMeF][X1][NMeA][NMeF][dC]-OH; thioether N-15), the IC50 at Myostatin [1] (Method A: Myostatin 10 ng/mL) stood at 0.0039 µM; on GDF-11 (Method A: GDF-11 10 ng/mL), 0.404 µM. In addition, the Selectivity in the experiment on Myostatin [2] (Method A) came to 104.
As for `CCCCCCC[C@@H]1NC(=O)[C@H](Cc2ccccc2)N(C)C(=O)[C@H](CCCNC(=N)N)NC(=O)[C@H](Cc2ccc(O)cc2)NC(=O)[C@H](Cc2cccc(OCC(=O)O)c2)NC(=O)CN(C)C(=O)[C@H]([C@@H](C)CC)NC(=O)[C@H](Cc2ccccc2)N(C)C(=O)[C@H](Cc2ccc(O)cc2)NC(=O)[C@H](Cc2c[nH]c3ncccc23)NC(=O)[C@@H](CCC(=O)O)NC(=O)[C@H](C)NC(=O)CSC[C@H](C(=O)O)NC(=O)[C@H](Cc2ccccc2)N(C)C(=O)[C@H](C)N(C)C1=O` [Myostatin_99_v219] ({CH2CO}-A[dE][Trp(7-aza)]Y[NMeF]I[Sar][Phe(3-OCH2COOH)]YR[NMeF][X1][NMeA][NMeF][dC]-OH; thioether N-15), the IC50 at Myostatin [1] (Method A: Myostatin 10 ng/mL) was 0.0027 µM; on GDF-11 (Method A: GDF-11 10 ng/mL), 0.313 µM. Further, in the experiment on Myostatin [2] (Method A), the Selectivity was 116.
The corresponding values for `CC[C@H](C)[C@@H]1NC(=O)[C@H](Cc2ccccc2)N(C)C(=O)[C@H](Cc2ccc(O)cc2)NC(=O)[C@H](Cc2c[nH]c3ncccc23)NC(=O)[C@H](C)NC(=O)CN(CCCC(=O)O)C(=O)CSC[C@H](C(=O)O)NC(=O)[C@H](Cc2ccccc2)N(C)C(=O)[C@H](C)N(C)C(=O)[C@H](CC(C)C)NC(=O)[C@H](Cc2ccccc2)N(C)C(=O)[C@H](CCCNC(=N)N)NC(=O)[C@H](Cc2ccc(C(=O)O)cc2)NC(=O)[C@H](Cc2ccccc2)NC(=O)CN(C)C1=O` [Myostatin_99_Variant_20-OH] ({CH2CO}-[Gly(N(CH2)3COOH)]A[Trp(7-aza)]Y[NMeF]I[Sar]F[Phe(4-COOH)]R[NMeF]L[NMeA][NMeF][dC]-OH; thioether N-15) are 0.0448 µM, 2.01 µM and 45.
For the compound `CCCCCCC[C@@H]1NC(=O)[C@H](Cc2ccccc2)N(C)C(=O)[C@H](CCCNC(=N)N)NC(=O)[C@H](Cc2ccc(OCC(=O)O)cc2)NC(=O)[C@H](Cc2cccc(OCC(=O)O)c2)NC(=O)[C@H](C)N(C)C(=O)[C@H]([C@@H](C)CC)NC(=O)[C@H](Cc2ccccc2)N(C)C(=O)[C@H](Cc2ccc(O)cc2)NC(=O)[C@H](Cc2c[nH]c3ccccc23)NC(=O)[C@H](C)NC(=O)CN(CCCC(=O)O)C(=O)CSC[C@H](C(=O)O)NC(=O)[C@H](Cc2ccccc2)N(C)C(=O)[C@H](C)N(C)C1=O` [Myostatin_99_v150] ({CH2CO}-[Gly(N(CH2)3COOH)]AWY[NMeF]I[NMeA][Phe(3-OCH2COOH)]Y(Carboxymethyl)R[NMeF][X1][NMeA][NMeF][dC]-OH; thioether N-15), the IC50 at Myostatin [1] (Method A: Myostatin 10 ng/mL) amounted to 0.0017 µM; at GDF-11 (Method A: GDF-11 10 ng/mL), 0.395 µM. This compound showed a Selectivity with Myostatin [2] (Method A) of 232.
In the same order, the values of `CCCCCCC[C@@H]1NC(=O)[C@H](Cc2ccccc2)N(C)C(=O)[C@H](CCCNC(=N)N)NC(=O)[C@H](Cc2ccc(C(=O)O)cc2)NC(=O)[C@H](Cc2cccc(OCC(=O)O)c2)NC(=O)[C@H]2CCCN2C(=O)[C@H]([C@@H](C)CC)NC(=O)[C@H](CC2CCCCC2)N(C)C(=O)[C@H](Cc2ccc(O)cc2)NC(=O)[C@H](Cc2c[nH]c3ccccc23)NC(=O)[C@@H](CCC(=O)O)NC(=O)[C@H](C)NC(=O)CSC[C@H](C(=O)N2CCN(CC(=O)O)CC2)NC(=O)[C@H](Cc2ccccc2)N(C)C(=O)[C@H](C)N(C)C1=O` [Myostatin_99_v253] ({CH2CO}-A[dE]WY[NMeCha]I[dP][Phe(3-OCH2COOH)][Phe(4-COOH)]R[NMeF][X1][NMeA][NMeF][dC]-{Piperazinyl(4-CH2COOH)}; thioether N-15) are 0.0057 µM, 2.44 µM and 428.
As for `CCCCCCCCCC[C@@H]1NC(=O)[C@H](Cc2ccccc2)N(C)C(=O)[C@H](CCCNC(=N)N)NC(=O)[C@H](Cc2ccc(C(=O)O)cc2)NC(=O)[C@H](Cc2cccc(OCC(=O)O)c2)NC(=O)CN(CC)C(=O)[C@H]([C@@H](C)CC)NC(=O)[C@H](Cc2ccccc2)N(C)C(=O)[C@H](Cc2ccc(O)cc2)NC(=O)[C@H](Cc2c[nH]c3cnccc23)NC(=O)[C@H](C)NC(=O)[C@H](C)NC(=O)CSC[C@H](C(=O)N2CCC(CC(=O)O)CC2)NC(=O)[C@H](Cc2ccccc2)N(C)C(=O)[C@H](CCC(=O)O)N(C)C1=O` [Myostatin_99_v339] ({CH2CO}-AA[Trp(6-aza)]Y[NMeF]I[NEtG][Phe(3-OCH2COOH)][Phe(4-COOH)]R[NMeF][Gly(decyl)][NMeE][NMeF][dC]-{Piperidinyl(4-CH2COOH)}; thioether N-15), the values for the IC50 on Myostatin [1] (Method B: Myostatin 1 ng/mL) and on GDF-11 (Method B: GDF-11 1 ng/mL) were 0.00089 µM and 0.128 µM, respectively. In the experiment on Myostatin [2] (Method B), this compound displayed a Selectivity of 144.7.
`CCCCCCC[C@@H]1NC(=O)[C@@H]2Cc3ccc(cc3)CNC(=O)C[C@H](NC(=O)CSC[C@H](C(=O)O)NC(=O)[C@H](Cc3ccccc3)N(C)C(=O)[C@H](C)N(C)C1=O)C(=O)N[C@@H](C)C(=O)N[C@@H](Cc1c[nH]c3ccccc13)C(=O)N[C@@H](Cc1ccc(O)cc1)C(=O)N(C)[C@@H](Cc1ccccc1)C(=O)N[C@@H]([C@@H](C)CC)C(=O)N(C)[C@@H](C)C(=O)N[C@@H](Cc1cccc(OCC(=O)O)c1)C(=O)N[C@@H](Cc1ccc(C(=O)O)cc1)C(=O)N[C@@H](CCCNC(=N)N)C(=O)N2C` [Myostatin_99_v386] ({CH2CO}-DAWY[NMeF]I[NMeA][Phe(3-OCH2COOH)][Phe(4-COOH)]R[NMePhe(4-CH2NH2)][X1][NMeA][NMeF][dC]-OH; lactam 1-11 (inferred); thioether N-15 (inferred); N-terminus and C-terminus assumed) displayed a Selectivity with Myostatin [2] (Method D) of 294.1.

The record behind these values is patent EP4786487A1, “PEPTIDE” (Peptidream Inc, priority 2023, dated 2025).
